In patent US20150306110A1, “COMPOSITIONS AND METHODS FOR TREATMENT OF INFLAMMATION AND HYPERKERATOTIC LESIONS” (Novelix Pharmaceuticals, Inc., priority 2008, published 2015):
≈ marks a conversion by molar mass, not a printed value.

Legend:
[1] = Solubility in ethanol, DMSO and ethanol-Tween 80; format: physicochemical; conditions: for solubility: organic solvent or mixture
Experimental: After solution in ethanol or DMSO, or chemically similar solvents, NVX-207 or a related compound may be formulated with co-solvents such as Cremophor EL® and/or Tween® 80, in a similar manner described for taxanes. For example, the formulation approach for paclitaxel (TAXOL®; Bristol-Myers Squibb) was to use 50% Cremophor EL® and 50% ethanol. The pharmaceutical formulation of paclitaxel contains 30 mg paclitaxel dissolved in 5 ml of this (1:1, v/v) mixture. These and equivalent formulations allow for the application of NVX-207 in sufficiently high concentrations not only for topical, but also for intralesional and systemic (intravenous infusion) use. Solubility of NVX-207 in ethanol was determined to be at least 300 mg/ml and reached 250 mg/ml in DMSO. […] The solubility of NVX-207 in ethanol-Tween® 80 was evaluated. Two-hundred mg of NVX-207 was dissolved in 1 ml ethanol. […] Then an equal volume of Tween® 80 was added, to achieve a stock solution of 100 mg/ml of NVX-207. The stock solution was clear and yellow. Each stock solution was diluted first 1:1 (50 mg/ml NVX-207), then 1:5 (20 mg/ml NVX-207) and finally 1:10 (10 mg/ml NVX-207) with water. […] NVX-207 therefore has, apart from its higher activity, significant advantages over betulinic acid, that include higher activity, better solubility in pharmaceutically suitable solvents, and better handling.

MCF-7 = assay: Cell growth/survival, MCF-7 breast cancer cells; format: cell-based; conditions: Homo sapiens, MCF7, TP53 neg.
Experimental: (§1) Melanoma cell lines used in this study were maintained in Dulbecco's modified Eagle medium (DMEM with 4500 mg/l glucose) supplemented with 10% FCS from Gibco BRL (Life Technologies, Berlin, Germany). The canine mastocytoma cell line C2 (DeVinney et al, Am. J. Respir. Cell Mol. Biol. 3:413-20, 1990) was used in this study, along with additional human cell lines: RD-ES and TC-71 (human Ewing's sarcoma), SAOS2 (human osteosarcoma), HT-1080 (human fibrosarcoma), Caco-2 (human colon adenocarcinoma), A549 (human lung adenocarcinoma), Hep-G2 and Hep-3B (human hepatocellular carcinoma), SK-N-DZ and SK-N-FI (human embryonal neuroblastoma), HTB9 (human bladder cancer), MDA-468 and MCF-7 (human breast cancer) and SW872 liposarcoma. All breast cancer cells were routinely cultured in DMEM/F-12 or in DMEM alone supplemented with 10% FCS at 37° C. in a humidified 5% CO2 atmosphere. RD-ES and TC-71 sarcoma cell lines were maintained in RPMI 1640 (Biochrom KG, Berlin, Germany) containing 10% FCS at 37° C. in a humidified 5% CO2 atmosphere. […]
(§2) Briefly, cells were maintained in standard medium, harvested, and plated at equal densities (750,000 cells in 5 cm tissue culture dishes). […] For the assessment of cell growth, the number of surviving cells was determined using an automated cell counter from Beckman Coulter GmbH (Krefeld, Germany). […]

human skin = assay: Tolerability of topical NVX-207 on human skin; format: in vivo; conditions: 1% topical solution (200 μl, 20% ethanol, 20% Tween 80 in water), human arm, once a day for one week; checked up to 6 months after
Experimental: A 1% topical solution of NVX-207 (200 μl total volume in 20% ethanol, 20% Tween® 80 in water) was topically applied to an area of skin on a human arm once a day for one week. A control solution (20% ethanol/20% Tween® 80 and 80% water) was applied to an area of skin adjacent to the area to which the NVX-207 solution was applied, also for one week.

GOTO (autonomic ganglia) = assay: Cell growth/survival, GOTO neuronal cancer cells; format: cell-based; conditions: Homo sapiens, TP53 neg.
pigs = conditions: pig, in vivo
Caco-2 = assay: Cell growth/survival, Caco-2 colon adenocarcinoma cells; format: cell-based; conditions: Homo sapiens, TP53 neg.
Experimental: as §1, §2

518A2 = assay: Cell growth/survival, 518A2 melanoma cells; format: cell-based; conditions: Homo sapiens, TP53 mut.
Experimental: as §1, §2

Osteosarcoma-D17 = assay: Cell growth/survival, canine osteosarcoma D17 cells; format: cell-based; conditions: Canis lupus familiaris
[2] = tested on: melanoma, liposarcoma, colon-and lung cancer cells; assay: Cell growth in select cancer cell lines, NVX-207 compared to betulinic acid (FIGS. 1A-D); format: cell-based; conditions: various cancer and non-cancer cells, human and animal cell lines
Experimental: FIGS. 1A-D show cell survival in select human cancer cell lines: 518A2 melanoma (FIG. 1A), SW872 liposarcoma (FIG. 1B), Caco-2 colon carcinoma (FIG. 1C) and A549 lung carcinoma (FIG. 1D). Cell survival as a percentage of untreated controls (y-axis) in response to NVX-207 (grey lines) or betulinic acid (black lines) in μg/ml (x-axis) are shown.
as §1, with “liposarcoma.” for “liposarcoma. All breast cancer cells were routinely cultured in DMEM/F-12 or in DMEM alone supplemented with 10% FCS at 37° C. in a humidified 5% CO2 atmosphere. RD-ES and TC-71 sarcoma cell lines were maintained in RPMI 1640 (Biochrom KG, Berlin, Germany) containing 10% FCS at 37° C. in a humidified 5% CO2 atmosphere.”
as §2

With `C=C(C)[C@@H]1CC[C@]2(C(=O)OCC(N)(CO)CO)CC[C@]3(C)[C@H](CC[C@@H]4[C@@]5(C)CC[C@H](OC(C)=O)C(C)(C)[C@@H]5CC[C@]43C)[C@@H]12` [NVX-207, 3-O-acetylbetulinic acid-2-amino-3-hydroxy-2-hydroxymethylpropyl ester] the “Increase in solubility in DMSO compared to betulinic acid” value ([1]; DMSO) was “over 20 fold”, the “Increase in solubility in ethanol compared to betulinic acid” value ([1]; ethanol) was “over 300 fold” and the solubility ([1]; Solubility in DMSO) was 250 mg/mL (≈ 415 mM). For the same compound, the solubility ([1]; Solubility in ethanol) was ≥ 300 mg/mL, the IC50 (MCF-7) was 4 µM and the “Undesirable (toxic) effects on treated skin” value (human skin) was “no undesirable (toxic) effects”. The IC50 (GOTO (autonomic ganglia)) was 2 µM, the “Blood chemistry and hematology (blood status, mineral homoeostasis, liver and kidney functions)” value (pigs) was “did not reflect any systemic NVX-207-induced impact” and the “Histopathological changes in skin biopsies” value (pigs) was “No treatment-related histopathological changes were observed”. For the same compound, the Macroscopic skin irritations (pigs; 2 weeks) was “No macroscopic NVX-207 related skin irritations were observed”, the IC50 (Caco-2) was 2.7 µM and the IC50 (518A2) was 2.6 µM. The IC50 (Osteosarcoma-D17) was 3.8 µM and the “Efficacy on a molar basis in promoting cell death compared to betulinic acid” value [2] was “up to 5 fold”.
